From the supplement of paper PMC10307832

Compound: Cc1nc(NC(=O)N2CCC[C@H]2C(N)=O)sc1-c1ccnc(C(C)(C)C(F)(F)F)c1 [Alpelisib] + C[C@@H](Oc1cc(-c2cnn(C3CCNCC3)c2)cnc1N)c1c(Cl)ccc(F)c1Cl [Crizotinib] (partner 1 µM)
Test: relative viability (nuclei count vs DMSO), 5 days (fraction); higher = more cells survive
Conditions: first compound 4 µM
Outline: (§1)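 Lung cancer cell lines were pin-tool dosed in 1536-well plates on the day after seeding, with either a lone drug or a fixed anchor-drug dose plus five library-drug doses (not always all listed) in √10 steps. Nuclei were counted on 4× images after 5 days. Relative viability is the ratio of treated-well to vehicle-well nuclei counts, with each value a median of duplicate plates.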

Cell Line	relative viability
LXF-289	0.778

Compound: Cc1nc(NC(=O)N2CCC[C@H]2C(N)=O)sc1-c1ccnc(C(C)(C)C(F)(F)F)c1 [Alpelisib] + CS(=O)(=O)N1CCN(Cc2cc3nc(-c4cccc5[nH]ncc45)nc(N4CCOCC4)c3s2)CC1 [Pictilisib] (partner 1 µM)
Test: as above
Conditions: first compound 0.04 µM
Outline: as §1

Cell Line	relative viability
NCI-H838	0.439
A-427	0.694
NCI-H2009	0.805
EKVX	0.441
NCI-H2087	0.801
NCI-H1734	0.472
LCLC-103H	0.721
LU99A	0.293
NCI-H460	0.388
NCI-H2170	0.322
SK-LU-1	0.592
COR-L23	0.744
HCC-15	0.721
NCI-H1944	0.331
NCI-H1563	0.647
EMC-BAC-2	0.512

Cell Line	relative viability
NCI-H1792	0.227
LC-2-ad	0.443
NCI-H2085	0.503
NCI-H647	0.446
HARA	0.3
NCI-H3122	0.622
NCI-H358	0.382
CAL-12T	0.388
COR-L 105	0.39
LCLC-97TM1	0.178
NCI-H520	0.244
NCI-H2228	0.473
NCI-H23	0.605
HCC-827	0.887
NCI-H2347	0.757
LXF-289	0.762

Same assay, conditions: first compound 0.1265 µM

Cell Line	relative viability
NCI-H838	0.471
A-427	0.641
NCI-H2009	0.773
EKVX	0.419
NCI-H2087	0.847
NCI-H1734	0.427
LCLC-103H	0.695
LU99A	0.278
NCI-H460	0.389
NCI-H2170	0.328
SK-LU-1	0.484
COR-L23	0.79
HCC-15	0.673
NCI-H1944	0.386
NCI-H1563	0.734
EMC-BAC-2	0.516

Cell Line	relative viability
NCI-H1792	0.306
LC-2-ad	0.435
NCI-H2085	0.549
NCI-H647	0.385
HARA	0.488
NCI-H3122	0.69
NCI-H358	0.316
COR-L 105	0.352
LCLC-97TM1	0.175
NCI-H520	0.316
NCI-H2228	0.326
NCI-H23	0.493
HCC-827	1.18
NCI-H2347	0.776
LXF-289	0.805

Same assay, conditions: first compound 0.4 µM

Cell Line	relative viability
NCI-H838	0.427
A-427	0.741
NCI-H2009	1.02
EKVX	0.419
NCI-H2087	1.01
NCI-H1734	0.494
LCLC-103H	0.506
LU99A	0.374
NCI-H460	0.378
NCI-H2170	0.331
SK-LU-1	0.656
COR-L23	0.865
HCC-15	0.822
NCI-H1944	0.349
NCI-H1563	0.67
EMC-BAC-2	0.62

Cell Line	relative viability
NCI-H1792	0.309
LC-2-ad	0.434
NCI-H2085	0.518
NCI-H647	0.402
HARA	0.459
NCI-H3122	0.572
NCI-H358	0.379
CAL-12T	0.65
COR-L 105	0.435
LCLC-97TM1	0.179
NCI-H520	0.318
NCI-H2228	0.547
NCI-H23	0.528
HCC-827	0.933
NCI-H2347	0.571
LXF-289	0.855

Same assay, conditions: first compound 1.265 µM

Cell Line	relative viability
NCI-H838	0.47
A-427	0.675
NCI-H2009	0.767
EKVX	0.466
NCI-H2087	0.827
NCI-H1734	0.397
LCLC-103H	0.56
LU99A	0.296
NCI-H460	0.345
NCI-H2170	0.343
SK-LU-1	0.594
COR-L23	0.594
HCC-15	0.716
NCI-H1944	0.344
NCI-H1563	0.613
EMC-BAC-2	0.528

Cell Line	relative viability
NCI-H1792	0.253
LC-2-ad	0.296
NCI-H2085	0.427
NCI-H647	0.294
HARA	0.326
NCI-H3122	0.58
NCI-H358	0.268
COR-L 105	0.378
LCLC-97TM1	0.195
NCI-H520	0.304
NCI-H2228	0.445
NCI-H23	0.419
HCC-827	0.973
NCI-H2347	0.648
LXF-289	0.707

Same assay, conditions: first compound 4 µM

Cell Line	relative viability
NCI-H838	0.434
A-427	0.718
NCI-H2009	0.52
EKVX	0.428
NCI-H2087	0.659
NCI-H1734	0.343
LCLC-103H	0.526
LU99A	0.251
NCI-H460	0.297
NCI-H2170	0.283
SK-LU-1	0.536
COR-L23	0.636
HCC-15	0.63
NCI-H1944	0.336
NCI-H1563	0.676
EMC-BAC-2	0.479

Cell Line	relative viability
NCI-H1792	0.206
LC-2-ad	0.415
NCI-H2085	0.426
NCI-H647	0.378
HARA	0.244
NCI-H3122	0.53
NCI-H358	0.205
CAL-12T	0.329
COR-L 105	0.341
LCLC-97TM1	0.21
NCI-H520	0.289
NCI-H2228	0.221
NCI-H23	0.464
HCC-827	0.651
NCI-H2347	0.554
LXF-289	0.733

Compound: Cc1nc(NC(=O)N2CCC[C@H]2C(N)=O)sc1-c1ccnc(C(C)(C)C(F)(F)F)c1 [Alpelisib] + Nc1nc2[nH]cc(CCc3ccc(C(=O)N[C@@H](CCC(=O)O)C(=O)O)cc3)c2c(=O)[nH]1 [Pemetrexed] (partner 0.2 µM)
Test: as above
Conditions: first compound 0.04 µM
Outline: as §1

Cell Line	relative viability
NCI-H838	0.257
A-427	0.89
NCI-H2009	0.987
EKVX	0.411
NCI-H2087	0.634
NCI-H1734	0.407
LCLC-103H	0.476
LU99A	0.187
NCI-H460	0.0625
NCI-H2170	0.277
SK-LU-1	1.04
COR-L23	0.188
HCC-15	0.228
NCI-H1944	0.596
NCI-H1563	0.857
EMC-BAC-2	0.448

Cell Line	relative viability
NCI-H1792	0.897
LC-2-ad	0.276
NCI-H2085	0.848
NCI-H647	0.182
HARA	0.254
NCI-H3122	0.208
NCI-H358	0.196
CAL-12T	1.26
COR-L 105	1.12
LCLC-97TM1	0.177
NCI-H520	0.609
NCI-H2228	0.35
NCI-H23	0.78
HCC-827	0.277
NCI-H2347	0.459
LXF-289	0.899

Same assay, conditions: first compound 0.1265 µM

Cell Line	relative viability
NCI-H838	0.238
A-427	0.87
NCI-H2009	1.03
EKVX	0.406
NCI-H2087	0.625
NCI-H1734	0.406
LCLC-103H	0.488
LU99A	0.188
NCI-H460	0.0624
NCI-H2170	0.23
SK-LU-1	0.987
COR-L23	0.184
HCC-15	0.218
NCI-H1944	0.695
NCI-H1563	0.579
EMC-BAC-2	0.461

Cell Line	relative viability
NCI-H1792	0.479
LC-2-ad	0.276
NCI-H2085	0.847
NCI-H647	0.168
HARA	0.249
NCI-H3122	0.208
NCI-H358	0.163
CAL-12T	1.14
COR-L 105	1.18
LCLC-97TM1	0.17
NCI-H520	0.716
NCI-H2228	0.228
NCI-H23	0.622
HCC-827	0.285
NCI-H2347	0.418
LXF-289	0.866

Same assay, conditions: first compound 0.4 µM

Cell Line	relative viability
NCI-H838	0.244
A-427	0.988
NCI-H2009	1.08
EKVX	0.461
NCI-H2087	0.679
NCI-H1734	0.394
LCLC-103H	0.506
LU99A	0.193
NCI-H460	0.0552
NCI-H2170	0.281
SK-LU-1	0.938
COR-L23	0.215
HCC-15	0.211
NCI-H1944	0.677
NCI-H1563	0.662
EMC-BAC-2	0.447

Cell Line	relative viability
NCI-H1792	0.992
LC-2-ad	0.275
NCI-H2085	0.86
NCI-H647	0.193
HARA	0.26
NCI-H3122	0.204
NCI-H358	0.145
CAL-12T	1.3
COR-L 105	1.39
LCLC-97TM1	0.183
NCI-H520	0.707
NCI-H2228	0.39
NCI-H23	0.726
HCC-827	0.278
NCI-H2347	0.442
LXF-289	0.999

Same assay, conditions: first compound 1.265 µM

Cell Line	relative viability
NCI-H838	0.229
A-427	0.885
NCI-H2009	1.01
EKVX	0.341
NCI-H2087	0.65
NCI-H1734	0.406
LCLC-103H	0.47
LU99A	0.154
NCI-H460	0.0558
NCI-H2170	0.29
SK-LU-1	0.909
COR-L23	0.2
HCC-15	0.21
NCI-H1944	0.5
NCI-H1563	0.622
EMC-BAC-2	0.441

Cell Line	relative viability
NCI-H1792	0.688
LC-2-ad	0.267
NCI-H2085	0.865
NCI-H647	0.161
HARA	0.23
NCI-H3122	0.197
NCI-H358	0.143
CAL-12T	0.93
COR-L 105	0.935
LCLC-97TM1	0.174
NCI-H520	0.557
NCI-H2228	0.272
NCI-H23	0.602
HCC-827	0.225
NCI-H2347	0.425
LXF-289	0.904

Same assay, conditions: first compound 4 µM

Cell Line	relative viability
NCI-H838	0.199
A-427	0.845
NCI-H2009	0.968
EKVX	0.349
NCI-H2087	0.606
NCI-H1734	0.399
LCLC-103H	0.333
LU99A	0.159
NCI-H460	0.033
NCI-H2170	0.265
SK-LU-1	0.955
COR-L23	0.196
HCC-15	0.211
NCI-H1944	0.502
NCI-H1563	0.567
EMC-BAC-2	0.353

Cell Line	relative viability
NCI-H1792	0.462
LC-2-ad	0.271
NCI-H2085	0.803
NCI-H647	0.155
HARA	0.274
NCI-H3122	0.173
NCI-H358	0.145
CAL-12T	1.03
COR-L 105	1.13
LCLC-97TM1	0.127
NCI-H520	0.413
NCI-H2228	0.319
NCI-H23	0.416
HCC-827	0.143
NCI-H2347	0.405
LXF-289	0.949
